Results published in patent US6316485A, “1,5-diphenylpyrazole derivatives” (Fujisawa Pharmaceutical Co., Ltd., priority 1997, dated 2001).

Experiments:
Human COX-I = target: T1, Human COX-I (Homo sapiens, UniProt P23219); experiment: Human recombinant COX-I activity in vitro (PGE2 formation, radioimmunoassay); type: biochemical; settings: recombinant human COX-I expressed in CHO cells; arachidonic acid 10 μM; PGE2 by radioimmunoassay
T1 construct: made in house; host or cells: stably transfected Chinese hamster ovary (CHO) cells; 1700×g supernatant of sonicated cells used as crude enzyme
T1 sequence (P23219 24-599): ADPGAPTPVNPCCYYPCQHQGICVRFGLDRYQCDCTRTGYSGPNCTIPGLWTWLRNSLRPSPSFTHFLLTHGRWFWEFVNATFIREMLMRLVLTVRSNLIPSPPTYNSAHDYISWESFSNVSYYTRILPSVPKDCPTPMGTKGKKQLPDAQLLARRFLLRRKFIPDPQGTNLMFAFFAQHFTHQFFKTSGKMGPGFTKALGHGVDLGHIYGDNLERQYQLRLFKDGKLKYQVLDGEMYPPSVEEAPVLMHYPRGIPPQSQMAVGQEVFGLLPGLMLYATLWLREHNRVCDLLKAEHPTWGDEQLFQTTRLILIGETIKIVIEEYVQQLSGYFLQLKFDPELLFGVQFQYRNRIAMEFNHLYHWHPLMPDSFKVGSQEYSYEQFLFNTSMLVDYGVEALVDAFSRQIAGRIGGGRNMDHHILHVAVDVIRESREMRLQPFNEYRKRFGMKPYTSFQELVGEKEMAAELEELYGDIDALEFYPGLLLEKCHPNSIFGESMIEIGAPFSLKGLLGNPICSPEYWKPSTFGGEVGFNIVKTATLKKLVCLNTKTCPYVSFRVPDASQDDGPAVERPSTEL
Experimental: (§1) a. Preparation of the recombinant cyclooxygenase (COX)
(§2) The human cyclooxygenase COX-I and COX-II were expressed in transfected Chinese hamster ovary (CHO) cells. Monolayer cultures of semi-confluent CHO cells stably expressing COX-I and COX-II were washed twice and scraped into phosphate buffered saline (PBS). The cells were centrifuged at 200×g for 5 minutes and the cell pellet was sonicated in reaction buffer containing 100 mM Tris-HCl (pH 7.4), 2 μM hematin and 5 mM tryptophan. Broken cells were centrifuged for 5 minutes at 1700×g at 4° C. and the supernatants were used as crude enzymes.
(§3) Cyclooxygenase activities in the absence or presence of inhibitors were measured by determining the level of prostaglandin E2 (PGE2) synthesis from arachidonic acid. Enzymes (1 μg for COX-I and/or 3 μg for COX-II) in a total volume of 200 μl of reaction buffer were incubated in the absence and presence of various concentrations of inhibitors for 5 minutes at 30° C. The reaction was then started by the addition of arachidonic acid to the final concentration of 10 μM. The reaction was terminated by 50 μl of HCl (1N) after incubation at 30° C. for 5 minutes. PGE2 was extracted with ethyl acetate, concentrated under a stream of nitrogen and analyzed by a radio immunoassay kit (Amersham) according to the manufacture's instructions.
(§4) b. Assay for human recombinant COX-I and COX-II activity
(§5) COX activity was assayed as PGE2 formation using radioimmunoassay to detect the prostaglandin release. The appropriate COX enzyme was incubated in 0.1 M Tris-HCl buffer (pH 7.3) containing hematin and tryptophan with the addition of arachidonic acid (10 μM) for 5 minutes at 37° C. Compounds were pre-incubated with the enzyme for 5 minutes prior to the addition of arachidonic acid. Any reaction between the arachidonic acid and the enzyme was stopped after 5 minutes at 37° C. by addition of 20 μl of 1N HCl. PGE2 formation was measured by radioimmunoassay (Amersham).

Human COX-II = target: T2, Human COX-II (Homo sapiens, UniProt P35354); experiment: Human recombinant COX-II activity in vitro (PGE2 formation, radioimmunoassay); type: biochemical; settings: recombinant human COX-II expressed in CHO cells; arachidonic acid 10 μM; PGE2 by radioimmunoassay
T2 construct: made in house; host or cells: stably transfected Chinese hamster ovary (CHO) cells; 1700×g supernatant of sonicated cells used as crude enzyme
T2 sequence (P35354 18-604): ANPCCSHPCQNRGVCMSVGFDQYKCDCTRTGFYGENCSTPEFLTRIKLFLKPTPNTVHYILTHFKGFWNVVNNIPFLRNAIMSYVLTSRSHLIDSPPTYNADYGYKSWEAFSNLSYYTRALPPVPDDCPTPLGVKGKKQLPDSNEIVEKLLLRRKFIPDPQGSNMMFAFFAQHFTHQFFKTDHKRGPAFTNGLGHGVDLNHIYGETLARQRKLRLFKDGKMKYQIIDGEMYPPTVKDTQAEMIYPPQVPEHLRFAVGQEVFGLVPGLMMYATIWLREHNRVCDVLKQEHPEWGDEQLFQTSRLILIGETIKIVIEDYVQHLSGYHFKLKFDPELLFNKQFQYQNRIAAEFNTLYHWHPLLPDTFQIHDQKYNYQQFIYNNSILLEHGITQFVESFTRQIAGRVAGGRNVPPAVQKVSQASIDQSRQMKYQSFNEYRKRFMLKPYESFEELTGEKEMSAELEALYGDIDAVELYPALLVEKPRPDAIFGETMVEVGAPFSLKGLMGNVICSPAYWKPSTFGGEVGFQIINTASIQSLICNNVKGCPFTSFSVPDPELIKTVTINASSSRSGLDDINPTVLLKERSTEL
Experimental: as §1, §2, §3, §4, §5

[1] = system: Adjuvant Arthritis in Rats; experiment: Effect on Adjuvant Arthritis in Rats (antiinflammatory activity); type: in vivo, female Sprague-Dawley rats; settings: 1.0 mg/kg, orally once a day for 23 days; paw volume on day 23 vs vehicle-treated controls

IC50 (Human COX-I)	IC50 (Human COX-II)	Structure (SMILES)	Inhibition of secondary lesion (uninjected paw) [1]
> 100 µM	< 1 µM	Cc1ccc(-n2nc(C(F)F)cc2-c2ccc(S(C)(=O)=O)cc2)cc1Br [3-(16), 1-(3-Bromo-4-methylphenyl)-3-(difluoromethyl)-5-[4-(methylsulfonyl)phenyl]pyrazole]	–
> 100 µM	< 1 µM	COc1ccc(-n2nc(Cl)cc2-c2ccc(S(C)(=O)=O)cc2)cc1Cl [10-(8), 3-Chloro-1-(3-chloro-4-methoxyphenyl)-5-[4-(methylsulfonyl)phenyl]pyrazole]	≥ 60%
–	–	Cc1cccc(-n2nc(C(F)(F)F)cc2-c2ccc(S(C)(=O)=O)cc2)c1 [Example 1, 1-(3-methylphenyl)-5-[4-(methylsulfonyl)phenyl]-3-(trifluoromethyl)pyrazole]	≥ 60%
> 100 µM	< 1 µM	Cc1cc(-n2nc(C#N)cc2-c2ccc(S(C)(=O)=O)cc2)ccc1F [Example 6, 1-(4-fluoro-3-methylphenyl)-5-[4-(methylsulfonyl)phenyl]pyrazole-3-carbonitrile]	–
